According to patent publication US20210154188A1, “ALK5 INHIBITORS, CONJUGATES, AND USES THEREOF” (SILVERBACK THERAPEUTICS, INC., priority 2018, published 2021):

Legend:
ALK5 = target: T1, ALK5 (Homo sapiens, UniProt P36897); experiment: ALK5 enzyme inhibition assay (33P-ATP filter-binding, Reaction Biology Corp); format: biochemical; conditions: casein substrate 1 mg/mL, 10 uM ATP
T1 construct: purchased Reaction Biology Corp (Malvern, PA)
T1 sequence (P36897 34-503): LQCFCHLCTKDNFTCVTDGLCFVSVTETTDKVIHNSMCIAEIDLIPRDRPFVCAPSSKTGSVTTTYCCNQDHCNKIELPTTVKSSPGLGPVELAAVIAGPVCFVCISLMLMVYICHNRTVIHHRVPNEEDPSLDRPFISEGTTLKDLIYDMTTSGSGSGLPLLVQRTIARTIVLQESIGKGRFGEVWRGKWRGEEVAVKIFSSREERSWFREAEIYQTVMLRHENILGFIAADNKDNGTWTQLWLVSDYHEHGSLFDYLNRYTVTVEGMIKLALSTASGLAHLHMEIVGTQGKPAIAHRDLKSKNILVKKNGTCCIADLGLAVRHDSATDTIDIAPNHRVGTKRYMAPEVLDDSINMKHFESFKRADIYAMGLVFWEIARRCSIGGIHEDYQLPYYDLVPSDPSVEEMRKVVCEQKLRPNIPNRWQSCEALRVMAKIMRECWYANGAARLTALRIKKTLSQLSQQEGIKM
Protocol: ALK5 enzyme inhibition assays were performed by Reaction Biology Corp (Malvern, PA). 1 mg/mL of peptide subtrate (casein) and 10 uM ATP were prepared in a mixture of fresh reaction buffer. The kinase was delivered into the substrate solution which was gently mixed. Compounds in 100% DMSO were added to the kinase reaction mixture by Acoustic technology (Echo550; nanoliter range) and the mixture was incubated for 20 min at room temperature. ^33P-ATP (Specific activity 10 uCi/uL) was added into the reaction mixture to initiate the reaction and the reaction mixture was incubated for 2 hours at room temperature. Radioactivity was detected by filter-binding method and kinase activity data were expressed as the percent remaining kinase activity in test samples compared to vehicle (dimethyl sulfoxide) reactions. IC50 values and curve fits were obtained using Prism (GraphPad Software).

[1] = test system: TGFb/SMAD Signaling Pathway SBE reporter cell line; experiment: TGFb reporter assay (luciferase); format: cell-based; conditions: 5-6 h preincubation, then TGFb, 18 h, luminescence
Protocol: TGFb/SMAD Signaling Pathway SBE reporter cell line was obtained from BPS Bioscience. Cells were passed/expanded/stored in liquid nitrogen per supplier's instruction with the exception that growth media was changed to DMEM-C with Geneticin (DMEM supplemented with 10% fetal bovine serum, 1× NEAA, 1 mM Pyruvate, 2 mM glutamine, 50 μg/mL penicillin, 50 U/mL streptomycin and 400 ug/mL of Geneticin). The assay media was MEM supplemented with 0.5% fetal bovine serum, 1× NEAA, 1 mM Pyruvate, 50 μg/mL penicillin and 50 U/mL streptomycin.
Reporter cells were harvested from the tissue culture flasks by incubation in small quantity of Versene at room temperature for three to five minutes after the media in the flask was removed and cells rinsed with PBS. Cells were counted and diluted in the assay media at ˜0.8×10^6 cells/mL then 50 uL/well were added to 96-well assay plate. Test samples (at desired concentrations diluted in assay media) were added to assay plate containing the 50 uL/well of cells (or media only), 50 uL per well, and incubated for 5-6 hours at 37° C. in a 5% CO2 humidified incubator. After that time, 15 uL of TGFb diluted to 12.5 ng/mL in the assay media was added to the plate. Controls included TGFb titration (from 25 to 0 ng/mL) without inhibitors, and media only (without cells, inhibitor or TGFb). Plates were incubated at 37° C. in a 5% CO2 humidified incubator for 18 h. Luciferase substrate solution was subsequently added at 75 uL per well, incubated in dark with shaking at room temperature for 10 min, and luminescence was measured using a luminometer.

Row | SMILES | IC50 (ALK5) [nM] | IC50 [1] [nM]
1 | Cc1cccc(-c2nc(CNCC3CC3)[nH]c2-c2ccc3ncnn3c2)n1 [Compound 1.8, 1-(5-([1,2,4]triazolo[1,5-a]pyridin-6-yl)-4-(6-methylpyridin-2-yl)-1H-imidazol-2-yl)-N-(cyclopropyl-methyl)methanamine] | 1000 to 10000 | 100 to 1000
2 | Cc1cccc(-c2nc(CNC3CC3)[nH]c2-c2ccc3ncnn3c2)n1 [Compound 1.7, N-((5-([1,2,4]triazolo[1,5-a]pyridin-6-yl)-4-(6-methylpyridin-2-yl)-1H-imidazol-2-yl)methyl)-cyclopropanamine] | 1000 to 10000 | 100 to 1000
3 | Cc1cccc(-c2nc(CNc3cccc4c3CCNC4)[nH]c2-c2ccc3ncnn3c2)n1 [Compound 1.4, N-((5-([1,2,4]triazolo[1,5-a]pyridin-6-yl)-4-(6-methylpyridin-2-yl)-1H-imidazol-2-yl)methyl)-1,2,3,4-tetrahydroisoquinolin-5-amine] | 100 to 1000 | 100 to 1000
4 | Cc1cccc(-c2nc(CNCCc3cccc4ncccc34)[nH]c2-c2ccc3ncnn3c2)n1 [Compound 1.61, N-((5-([1,2,4]triazolo[1,5-a]pyridin-6-yl)-4-(6-methylpyridin-2-yl)-1H-imidazol-2-yl)methyl)-2-(quinolin-5-yl)ethan-1-amine] | 100 to 1000 | 10 to 100
5 | Cc1cccc(-c2nc(CNCC3CCCCC3)[nH]c2-c2ccc3ncnn3c2)n1 [Compound 1.42, 1-(5-([1,2,4]triazolo[1,5-a]pyridin-6-yl)-4-(6-methylpyridin-2-yl)-1H-imidazol-2-yl)-N-(cyclohexylmethyl)methanamine] | 100 to 1000 | 10 to 100
6 | Cc1cccc(-c2nc(CN[C@@H]3CCc4ccccc43)[nH]c2-c2ccc3ncnn3c2)n1 [Compound 1.30, (R)-N-((5-([1,2,4]triazolo[1,5-a]pyridin-6-yl)-4-(6-methylpyridin-2-yl)-1H-imidazol-2-yl)methyl)-2,3-dihydro-1H-inden-1-amine] | 100 to 1000 | 10 to 100
7 | Cc1cccc(-c2nc(CNCc3ccc4c(c3)OCO4)[nH]c2-c2ccc3ncnn3c2)n1 [Compound 1.41, 1-(5-([1,2,4]triazolo[1,5-a]pyridin-6-yl)-4-(6-methylpyridin-2-yl)-1H-imidazol-2-yl)-N-(benzo[d][1,3]dioxol-5-ylmethyl)methanamine] | 100 to 1000 | 100 to 1000
8 | Cc1cccc(-c2nc(CN[C@@H]3c4ccccc4C[C@H]3O)[nH]c2-c2ccc3ncnn3c2)n1 [Compound 1.46, (1R,2R)-1-(((5-([1,2,4]triazolo[1,5-a]pyridin-6-yl)-4-(6-methylpyridin-2-yl)-1H-imidazol-2-yl)methyl)amino)-2,3-dihydro-1H-inden-2-ol] | 100 to 1000 | 10 to 100
9 | Cc1cccc(-c2nc(CNC3CCOCC3)[nH]c2-c2ccc3ncnn3c2)n1 [Compound 1.14, 1-(5-([1,2,4]triazolo[1,5-a]pyridin-6-yl)-4-(6-methylpyridin-2-yl)-1H-imidazol-2-yl)-N-(4-tetrahydropyranyl)methanamine] | 100 to 1000 | 10 to 100
10 | Cc1cccc(-c2nc(CNC3CCc4ccccc43)[nH]c2-c2ccc3ncnn3c2)n1 (racemic) [Compound 1.26, rac-N-((5-([1,2,4]triazolo[1,5-a]pyridin-6-yl)-4-(6-methylpyridin-2-yl)-1H-imidazol-2-yl)methyl)-2,3-dihydro-1H-inden-1-amine] | 100 to 1000 | 10 to 100

Other lines, results leading:

Row | IC50 (ALK5) [nM] | IC50 [1] [nM] | SMILES
11 | 100 to 1000 | 100 to 1000 | Cc1cccc(-c2nc(CNc3ccc4c(c3)CNCC4)[nH]c2-c2ccc3ncnn3c2)n1 [Compound 1.1, N-((5-([1,2,4]triazolo[1,5-a]pyridin-6-yl)-4-(6-methylpyridin-2-yl)-1H-imidazol-2-yl)methyl)-1,2,3,4-tetrahydroisoquinolin-7-amine]
12 | 100 to 1000 | 10 to 100 | Cc1cccc(-c2nc(CN[C@@H]3c4ccccc4C[C@@H]3O)[nH]c2-c2ccc3ncnn3c2)n1 [Compound 1.44, (1R,2S)-1-(((5-([1,2,4]triazolo[1,5-a]pyridin-6-yl)-4-(6-methylpyridin-2-yl)-1H-imidazol-2-yl)methyl)amino)-2,3-dihydro-1H-inden-2-ol]
13 | 100 to 1000 | 10 to 100 | Cc1cccc(-c2nc(CNC3CCCCC3)[nH]c2-c2ccc3ncnn3c2)n1 [Compound 1.12, 1-(5-([1,2,4]triazolo[1,5-a]pyridin-6-yl)-4-(6-methylpyridin-2-yl)-1H-imidazol-2-yl)-N-(cyclohexyl)methanamine]
14 | 100 to 1000 | 10 to 100 | Cc1cccc(-c2nc(CN3Cc4ccccc4C3=O)[nH]c2-c2ccc3ncnn3c2)n1 [Compound 1.56, 2-((5-([1,2,4]triazolo[1,5-a]pyridin-6-yl)-4-(6-methylpyridin-2-yl)-1H-imidazol-2-yl)methyl)isoindolin-1-one]
15 | 100 to 1000 | 10 to 100 | Cc1cccc(-c2nc(CNC3CCCCCC3)[nH]c2-c2ccc3ncnn3c2)n1 [Compound 1.13, 1-(5-([1,2,4]triazolo[1,5-a]pyridin-6-yl)-4-(6-methylpyridin-2-yl)-1H-imidazol-2-yl)-N-(cycloheptyl)methanamine]
16 | 100 to 1000 | 10 to 100 | Cc1cccc(-c2nc(CNCCc3ccnc4ccccc34)[nH]c2-c2ccc3ncnn3c2)n1 [Compound 1.60, N-((5-([1,2,4]triazolo[1,5-a]pyridin-6-yl)-4-(6-methylpyridin-2-yl)-1H-imidazol-2-yl)methyl)-2-(quinolin-4-yl)ethan-1-amine]
17 | 100 to 1000 | 10 to 100 | Cc1cccc(-c2nc(CNC3CCCC3)[nH]c2-c2ccc3ncnn3c2)n1 [Compound 1.11, 1-(5-([1,2,4]triazolo[1,5-a]pyridin-6-yl)-4-(6-methylpyridin-2-yl)-1H-imidazol-2-yl)-N-(cyclopentyl)methanamine]
18 | 100 to 1000 | 10 to 100 | Cc1cccc(-c2nc(CNC3Cc4ccccc4C3)[nH]c2-c2ccc3ncnn3c2)n1 [Compound 1.27, N-((5-([1,2,4]triazolo[1,5-a]pyridin-6-yl)-4-(6-methylpyridin-2-yl)-1H-imidazol-2-yl)methyl)-2,3-dihydro-1H-inden-2-amine]
19 | 100 to 1000 | 100 to 1000 | CC(=O)NC1Cc2ccc(NCc3nc(-c4cccc(C)n4)c(-c4ccc5ncnn5c4)[nH]3)cc2C1 (centres unmarked) [Compound 1.25, N-(5-(((5-([1,2,4]triazolo[1,5-a]pyridin-6-yl)-4-(6-methylpyridin-2-yl)-1H-imidazol-2-yl)methyl)amino)-2,3-dihydro-1H-inden-2-yl)acetamide]
20 | 100 to 1000 | 10 to 100 | Cc1cccc(-c2nc(CN[C@H]3c4ccccc4C[C@@H]3O)[nH]c2-c2ccc3ncnn3c2)n1 [Compound 1.45, (1S,2S)-1-(((5-([1,2,4]triazolo[1,5-a]pyridin-6-yl)-4-(6-methylpyridin-2-yl)-1H-imidazol-2-yl)methyl)amino)-2,3-dihydro-1H-inden-2-ol]
21 | 10 to 100 | 10 to 100 | Cc1cccc(-c2nc(CNCCc3cccc4ccccc34)[nH]c2-c2ccc3ncnn3c2)n1 [Compound 1.59, N-((5-([1,2,4]triazolo[1,5-a]pyridin-6-yl)-4-(6-methylpyridin-2-yl)-1H-imidazol-2-yl)methyl)-2-(naphthalen-1-yl)ethan-1-amine]
22 | 10 to 100 | 10 to 100 | Cc1cccc(-c2nc(CN[C@H]3c4ccccc4C[C@H]3O)[nH]c2-c2ccc3ncnn3c2)n1 [Compound 1.43, (1S,2R)-1-(((5-([1,2,4]triazolo[1,5-a]pyridin-6-yl)-4-(6-methylpyridin-2-yl)-1H-imidazol-2-yl)methyl)amino)-2,3-dihydro-1H-inden-2-ol]
